In patent US20240294498A1, “FACTOR XIIA INHIBITORS” (Lunac Therapeutics Ltd, priority 2021, published 2024):

Key:
Type in all cases: biochemical
FXa = FXa (Homo sapiens, UniProt P00742); test: Determination of selectivity: FXa inhibition (chromogenic substrate S2765); conditions: fold selectivity for FXIIa over FXa (human); category
In short: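 FXa (5 nM) preincubated with increasing compound (top 500 μM) for 10 mins at 37° C in 50 mM Tris, 137 mM NaCl pH 7.4, 5% DMSO, then S2765 added at its KM. Absorbance at 405 nm followed kinetically for 3 hours; IC50 from initial rates, converted to Ki by Cheng-Prusoff.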

FXIIa = biological target: T1, FXIIa (Homo sapiens, UniProt P00748); test: Determination of Factor XIIa inhibition (chromogenic substrate S-2302); conditions: human FXIIa alpha, Ki category
T1 construct: FXIIa alpha
T1 sequence (P00748 373-615 limits assumed): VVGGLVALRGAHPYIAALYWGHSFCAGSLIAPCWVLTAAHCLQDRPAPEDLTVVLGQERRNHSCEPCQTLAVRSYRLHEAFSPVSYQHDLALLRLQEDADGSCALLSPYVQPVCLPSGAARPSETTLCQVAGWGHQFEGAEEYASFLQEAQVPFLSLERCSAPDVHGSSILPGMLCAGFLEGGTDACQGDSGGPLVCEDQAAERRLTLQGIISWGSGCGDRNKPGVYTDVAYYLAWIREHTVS
T1 sequence (P00748 20-372 partner limits assumed): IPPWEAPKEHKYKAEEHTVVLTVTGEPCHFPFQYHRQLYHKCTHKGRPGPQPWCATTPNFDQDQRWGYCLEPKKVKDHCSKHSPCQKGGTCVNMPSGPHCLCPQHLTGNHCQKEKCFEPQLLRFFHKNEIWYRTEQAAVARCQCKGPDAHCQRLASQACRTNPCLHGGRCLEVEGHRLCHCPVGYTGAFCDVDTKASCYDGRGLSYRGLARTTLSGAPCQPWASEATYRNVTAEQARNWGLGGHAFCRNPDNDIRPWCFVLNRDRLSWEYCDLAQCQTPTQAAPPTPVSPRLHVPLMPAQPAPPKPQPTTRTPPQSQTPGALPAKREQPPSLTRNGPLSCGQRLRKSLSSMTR
In short: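 Compound preincubated with 10 nM FXIIa for 10 min at 37° C in 50 mM Tris, 137 mM NaCl, pH 7.4, 5% DMSO, top concentration 500 μM; S-2302 added at Km. pNA release followed at 405 nm for 3 h; IC50 from initial rates, converted to Ki via Ki = IC50/(1+[S]/Km).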

thrombin = biological target: T2, thrombin (Homo sapiens, UniProt P00734); test: Determination of selectivity: thrombin inhibition (chromogenic substrate GPR); conditions: fold selectivity for FXIIa over thrombin (human); category
T2 construct: FXa (5 nM) and thrombin (5 nM)
In short: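 Thrombin (5 nM) preincubated with increasing compound concentrations (top 500 μM, 5% DMSO) 10 min at 37 °C in 50 mM Tris, 137 mM NaCl pH 7.4, then GPR chromogenic substrate at its KM. pNA release read kinetically at 405 nm for 3 h at 37 °C. IC50 from initial rates, converted to Ki via Cheng–Prusoff.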

Sequence of FXa (P00742 235-488 limits assumed): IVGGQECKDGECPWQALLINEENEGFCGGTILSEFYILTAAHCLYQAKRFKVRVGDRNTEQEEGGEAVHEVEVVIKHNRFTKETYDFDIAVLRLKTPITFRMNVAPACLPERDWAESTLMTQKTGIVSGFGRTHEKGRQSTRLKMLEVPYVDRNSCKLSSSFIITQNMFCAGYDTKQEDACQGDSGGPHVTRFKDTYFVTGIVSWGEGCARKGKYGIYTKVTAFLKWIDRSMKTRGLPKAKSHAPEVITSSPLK
Sequence of FXa (P00742 41-179 partner limits assumed): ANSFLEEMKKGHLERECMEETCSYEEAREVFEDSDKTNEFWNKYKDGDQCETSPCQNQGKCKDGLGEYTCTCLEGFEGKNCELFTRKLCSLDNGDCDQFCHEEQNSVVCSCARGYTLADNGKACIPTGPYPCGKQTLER

Row | FXa (human)/FXIIa alpha (human) (FXa) | Ki (FXIIa) [nM] | Structure (SMILES) | Thrombin (human)/FXIIa alpha (human) (thrombin)
1 | ∘∘∘ | 200 to 800 | COc1ccc(C[C@@H]2C[C@@H](C(=O)NCc3ccc4c(cnn4C)c3)N(C(=O)[C@@H]3NCCC[C@@H]3C(=O)N3CCCC3)C2)cn1 [Example M05875, (2S,4R)-4-((6-methoxypyridin-3-yl)methyl)-N-((1-methyl-1H-indazol-5-yl)methyl)-1-((2R,3S)-3-(pyrrolidine-1-carbonyl)piperidine-2-carbonyl)pyrrolidine-2-carboxamide] | +++ (fold selectivity values greater than 100)
2 | ∘∘∘ | < 200 | Cn1nnc2cc(CNC(=O)[C@@H]3C[C@@H](Cc4cccc5ccccc45)CN3C(=O)[C@@H]3NCCC[C@@H]3C(=O)N3CCCC3)ccc21 [Example M05877, (2S,4R)-N-((1-methyl-1H-benzo[d][1,2,3]triazol-5-yl)methyl)-4-(naphthalen-1-ylmethyl)-1-((2R,3S)-3-(pyrrolidine-1-carbonyl)piperidine-2-carbonyl)pyrrolidine-2-carboxamide] | +++ (fold selectivity values greater than 100)
3 | ∘∘∘ | < 200 | Cc1ccc(C[C@@H]2C[C@@H](C(=O)NCc3ccc4c(cnn4C)c3)N(C(=O)[C@@H]3NCCC[C@@H]3C(=O)N3CC(F)C3)C2)cc1 [Example M05878, (2S,4R)-1-((2R,3S)-3-(3-fluoroazetidine-1-carbonyl)piperidine-2-carbonyl)-N-((1-methyl-1H-indazol-5-yl)methyl)-4-(4-methylbenzyl)pyrrolidine-2-carboxamide] | +++ (fold selectivity values greater than 100)
4 | ∘∘∘ | < 200 | Cn1nnc2cc(CNC(=O)[C@@H]3C[C@@H](Cc4ccc5ccccc5c4)CN3C(=O)[C@@H]3NCCC[C@@H]3C(=O)N3CCCC3)ccc21 [Example M05881, (2S,4R)-N-((1-methyl-1H-benzo[d][1,2,3]triazol-5-yl)methyl)-4-(naphthalen-2-ylmethyl)-1-((2R,3S)-3-(pyrrolidine-1-carbonyl)piperidine-2-carbonyl)pyrrolidine-2-carboxamide] | +++ (fold selectivity values greater than 100)
5 | ∘∘∘ | 800 to 5000 | Cc1nnc2cc(CNC(=O)[C@@H]3C[C@@H](Cc4ccc(C(F)(F)F)cc4)CN3C(=O)[C@@H]3NCCC[C@@H]3C(=O)N3CCCC3)ccn12 [Example M05882, (2S,4R)-N-((3-methyl-[1,2,4]triazolo[4,3-a]pyridin-7-yl)methyl)-1-((2R,3S)-3-(pyrrolidine-1-carbonyl)piperidine-2-carbonyl)-4-(4-(trifluoromethyl)benzyl)pyrrolidine-2-carboxamide] | +++ (fold selectivity values greater than 100)
6 | ∘∘ | < 200 | Cc1ccc(C[C@@H]2C[C@@H](C(=O)NCc3cnc4[nH]cc(Cl)c4c3)N(C(=O)[C@@H]3NCCC[C@@H]3C(=O)N3CCCC3)C2)cc1 [Example M05899, (2S,4R)-N-((3-chloro-1H-pyrrolo[2,3-b]pyridin-5-yl)methyl)-4-(4-methylbenzyl)-1-((2R,3S)-3-(pyrrolidine-1-carbonyl)piperidine-2-carbonyl)pyrrolidine-2-carboxamide] | + (fold selectivity values less than 10 (e.g. a fold selectivity value of less than 10 and greater than 1))
7 | ∘∘∘ | 200 to 800 | Cc1ccc(C[C@@H]2C[C@@H](C(=O)NCC3CCn4c(C)nnc4C3)N(C(=O)[C@@H]3NCCC[C@@H]3C(=O)N3CCCC3)C2)cc1 (stereo partly drawn) [Example M05913, (2S,4R)-N-[(3-mthyl-5,6,7,8-tetrahydro-[1,2,4]triazolo[4,3-a]pyidin-7-yl)methyl]-4-(p-tolylmethyl)-1-[(2R,3S)-3-(pyrrolidine-1-carbonyl)piperidine-2-carbonyl]pyrrolidine-2-carboxamide] | +++ (fold selectivity values greater than 100)
8 | ∘∘∘ | < 200 | Cn1nnc2cc(CNC(=O)[C@@H]3C[C@@H](Cc4ccc(C5CC5)cc4)CN3C(=O)[C@@H]3NCCC[C@@H]3C(=O)N3CCCC3)ccc21 [Example M05934, (2S,4R)-4-(4-cyclopropylbenzyl)-N-((1-methyl-1H-benzo[d][1,2,3]triazol-5-yl)methyl)-1-((2R,3S)-3-(pyrrolidine-1-carbonyl)piperidine-2-carbonyl)pyrrolidine-2-carboxamide] | +++ (fold selectivity values greater than 100)
9 | ∘∘∘ | 200 to 800 | CCCc1ccc(C[C@@H]2C[C@@H](C(=O)NCc3ccc4c(c3)nnn4C)N(C(=O)[C@@H]3NCCC[C@@H]3C(=O)N3CCCC3)C2)cc1 [Example M05935] | +++ (fold selectivity values greater than 100)
10 | ∘∘ | ≥ 5000 | COc1ccc(CNC(=O)[C@@H]2C[C@@H](Cc3ccc(C)cc3)CN2C(=O)[C@@H]2NCCC[C@@H]2C(=O)N2CCCC2)cc1 [Example M05965, (2S,4R)-N-[(4-methoxyphenyl)methyl]-4-(p-tolylmethyl)-1-[(2R,3S)-3-(pyrrolidine-1-carbonyl)piperidine-2-carbonyl]pyrrolidine-2-carboxamide] | ++ (a fold selectivity value of 10 to 100)
11 | ∘∘∘ | < 200 | Cn1nnc2cc(CNC(=O)[C@@H]3C[C@@H](CC4=CCC5(CC4)CC5)CN3C(=O)[C@@H]3NCCC[C@@H]3C(=O)N3CCCC3)ccc21 [Example M05991] | +++ (fold selectivity values greater than 100)
12 | ∘∘∘ | 200 to 800 | Cn1nnc2cc(CNC(=O)[C@@H]3C/C(=C/C4=CCC5(CC4)CC5)CN3C(=O)[C@@H]3NCCC[C@@H]3C(=O)N3CCCC3)ccc21 [Example M05992, (S,Z)-N-((1-methyl-1H-benzo[d][1,2,3]triazol-5-yl)methyl)-1-((2R,3S)-3-(pyrrolidine-1-carbonyl)piperidine-2-carbonyl)-4-(spiro[2.5]oct-5-en-6-ylmethylene)pyrrolidine-2-carboxamide] | +++ (fold selectivity values greater than 100)
13 | ∘∘∘ | 200 to 800 | Cn1ncc2cc(CNC(=O)[C@@H]3C[C@@H](Cc4ccc(C5CC5)nn4)CN3C(=O)[C@@H]3NCCC[C@@H]3C(=O)N3CCCC3)ccc21 [Example M05997, (2S,4S)-4-[(6-cyclopropylpyridazin-3-yl)methyl]-N-[(1-methylindazol-5-yl)methyl]-1-[(2R,3S)-3-(pyrrolidine-1-carbonyl)piperidine-2-carbonyl]pyrrolidine-2-carboxamide] | +++ (fold selectivity values greater than 100)
14 | ∘∘∘ | 200 to 800 | Cc1nnc2cc(CNC(=O)[C@@H]3C[C@@H](Cc4ccc(C5CC5)cc4)CN3C(=O)[C@@H]3NCCC[C@@H]3C(=O)N3CCCC3)ccn12 [Example M06006, (2S,4R)-4-(4-cyclopropylbenzyl)-N-((3-methyl-[1,2,4]triazolo[4,3-a]pyridin-7-yl)methyl)-1-((2R,3S)-3-(pyrrolidine-1-carbonyl)piperidine-2-carbonyl)pyrrolidine-2-carboxamide] | +++ (fold selectivity values greater than 100)
15 | ∘∘∘ | 200 to 800 | Cn1ncc2cc(CNC(=O)[C@@H]3C[C@@H](Cc4ncc(C5CC5)o4)CN3C(=O)[C@@H]3NCCC[C@@H]3C(=O)N3CCCC3)ccc21 [Example M06009] | +++ (fold selectivity values greater than 100)
16 | ∘∘∘ | 200 to 800 | Cc1ccc(C[C@@H]2C[C@@H](C(=O)NCc3ccc4c(cnn4C)c3)N(C(=O)[C@@H]3NCCC[C@@H]3C(=O)N3CC[C@@H](N(C)C)C3)C2)cc1 [Example M06010, (2S,4R)-1-((2R,3S)-3-((R)-3-(dimethylamino)pyrrolidine-1-carbonyl)piperidine-2-carbonyl)-N-((1-methyl-1H-indazol-5-yl)methyl)-4-(4-methylbenzyl)pyrrolidine-2-carboxamide] | +++ (fold selectivity values greater than 100)
